We go through 46 molecules from the Deep4Chem optical property database.

This series in a line: photoluminescence quantum yield (fraction); solvent given as SMILES.

Regarding `CN(C)c1ccc(-c2cc(-c3ccc(C#N)cc3)nn2C)cc1`, the photoluminescence quantum yield (in ClCCl) came out at 0.21.

As to `N#Cc1ccc(-n2c(-c3ccc(-c4ccc(-c5nc6c7ccccc7c7ccccc7c6n5-c5ccc(C#N)c6ccccc56)c5ccccc45)c4ccccc34)nc3c4ccccc4c4ccccc4c32)c2ccccc12`, the photoluminescence quantum yield (in ClCCl) stood at 0.9.

As to `CCOC(=O)CSc1nc(C)c(CC)c(C#N)c1C#N`, the photoluminescence quantum yield (in c1ccccc1) stood at 0.034.

As to `C(=C\c1ccc(Nc2ccccc2)cc1)/c1ccccc1`, the photoluminescence quantum yield was determined as 0.3 (in CC#N) and 0.51 (in CCCCCC).

As to `C[Si](C)(C)C#C[Si](c1c2ccccc2cc2ccccc12)(c1c2ccccc2cc2ccccc12)c1c2ccccc2cc2ccccc12`, under “in ClC(Cl)Cl”, the photoluminescence quantum yield was found to be 0.04.

Turning to `CC(C)(C)NS(=O)(=O)c1ccc2c(c1)C(=O)/C(=C1\Sc3ccc(S(=O)(=O)NC(C)(C)C)cc3C1=O)S2`, the photoluminescence quantum yield was found to be 0.611 (in C1COCCO1), 0.352 (in CN(C)C=O) and 0.009 (in CS(C)=O).

On to `Cc1ccc2c(c1)C1(c3ccccc3-c3ccccc31)c1cc(C)ccc1N2c1ccc(-c2nc(-c3ccccc3)cc(-c3ccccc3)n2)cc1`, for which the photoluminescence quantum yield (in O=P(c1ccccc1)(c1ccccc1)c1ccc2oc3ccc(P(=O)(c4ccccc4)c4ccccc4)cc3c2c1) came to 0.87.

`CC(=O)c1c(N[C@@H](Cc2ccccc2)C(=O)O)c2ccc(N(C)C)cc2oc1=O` had a photoluminescence quantum yield (in ClCCl) of 0.0026.

Under “in Cc1ccccc1”, `CCCCCCCCCCC(CCCCCCCCCC)Cn1c2cc(-c3ccc(C(C)(C)C)cc3)c3cccc4c5ccc6c7cc(-c8cc(C(C)(C)C)cc(C(C)(C)C)c8)n8c7c(c7cc1c(c5c76)c2c34)=C1C=CC(c2cc(C(C)(C)C)cc(C(C)(C)C)c2)=[N+]1[B-]8(F)F` returned a photoluminescence quantum yield of 0.008.

Turning to `COc1ccccc1-c1c2ccc(=[N+]3CCCCC3)cc-2oc2cc(N3CCCCC3)ccc12`, the photoluminescence quantum yield came out at 0.36 (in CCO) and 0.92 (in ClCCl).

`CC(C)[Si](C#Cc1c2ccccc2c(C#Cc2c3ccccc3c(C#Cc3c4ccccc4c(C#Cc4c5ccccc5c(C#Cc5c6ccccc6c(C#C[Si](C(C)C)(C(C)C)C(C)C)c6ccccc56)c5ccccc45)c4ccccc34)c3ccccc23)c2ccccc12)(C(C)C)C(C)C` came in with a photoluminescence quantum yield (in Cc1ccccc1) of 0.018.

For `OB(O)c1ccc(-c2ccc(N(c3ccccc3)c3ccccc3)cc2)cc1`, the photoluminescence quantum yield by setting is: (in C1CCCCC1) 0.72; (in C1CCOC1) 0.65; (in CC#N) 0.68; (in CCO) 0.81; (in CCOC(C)=O) 0.66; (in CCOCC) 0.65. Further, the photoluminescence quantum yield (in CO) came to 0.62.

On to `c1ccc2c(-c3ccc4sc5ccc(-c6c7ccccc7cc7ccccc67)cc5c4c3)c3ccccc3cc2c1`, for which the photoluminescence quantum yield (in C1CCCCC1) is 0.47, the photoluminescence quantum yield (in CC#N) was found to be 0.5 and the photoluminescence quantum yield (in ClCCl) came to 0.57.

Under “in ClCCl”, `COc1ccc(-c2c3cc4ccccc4cc3c(C#Cc3ccccc3)c3cc4cc(C)sc4cc23)cc1` yielded a photoluminescence quantum yield of 0.45.

For the molecule `Cc1cc(N2c3ccccc3C(C)(C)c3ccccc32)ccc1-c1cc(-c2ccc(N3c4ccccc4C(C)(C)c4ccccc43)cc2C)ncn1`, the photoluminescence quantum yield (in O=P(c1ccccc1)(c1ccccc1)c1ccccc1Oc1ccccc1P(=O)(c1ccccc1)c1ccccc1) was 0.71.

`CCCCCCCCCC[n+]1cc2ccc3c[n+](CCCCCCCCCC)cc4ccc(c1)c2c34` returned a photoluminescence quantum yield (in CC#N) of 0.5.

As for `CC1=c2cc3c(cc2=[N+]2C1=Cc1c4ccccc4c(C)n1[B-]2(F)F)C1=Cc2c4ccccc4c(C)n2[B-](F)(F)[N+]1=C3C`, the photoluminescence quantum yield (in ClC(Cl)Cl) was determined as 0.04.

The molecule `CC(C)(C)c1ccc(-c2nnc(-c3c(-n4c5ccccc5c5ccccc54)c(-n4c5ccccc5c5ccccc54)c(-c4nnc(-c5ccc(C(C)(C)C)cc5)o4)c(-n4c5ccccc5c5ccccc54)c3-n3c4ccccc4c4ccccc43)o2)cc1` gave a photoluminescence quantum yield (in c1cc(-n2c3ccccc3c3ccccc32)nc(-n2c3ccccc3c3ccccc32)c1) of 0.89.

In the case of `COc1ccc(/C2=C3N=C(C(c4ccccc4)=C/3c3ccccc3)/C(c3ccc(OC)cc3)=c3\[nH]/c(c(-c4ccccc4)c3-c3ccccc3)=C(/c3ccc(OC)cc3)C3=N/C(=C(/c4ccc(OC)cc4)c4[nH]c2c(-c2ccccc2)c4-c2ccccc2)C(c2ccccc2)=C3c2ccccc2)cc1`, the photoluminescence quantum yield (in ClCCl) was found to be 0.006.

Molecule `C=CC12N=N[C@](C=C)(C3C4CCC(C4)C31)C1[C@@H]3CC[C@@H](C3)[C@H]12` (stereo partly drawn) had a photoluminescence quantum yield (in CC#N) of 0.16.

For `Cc1cc(C)c(B(c2c(C)cc(C)cc2C)c2cc3ccc4ccccc4c3c3c2cc(N(C)C)c2ccccc23)c(C)c1`, the photoluminescence quantum yield reads like this: (in C1CCCCC1) 0.23; (in C1CCOC1) 0.09; (in CC#N) 0.04; (in ClC(Cl)Cl) 0.1; (in c1ccccc1) 0.14.

`CCOC(=O)c1sc2nc3c(c(C#N)c2c1N)CCCCCC3` displayed a photoluminescence quantum yield (in c1ccccc1) of 0.063.

With `Cc1ccc(C2=C(c3ccc(C)cc3)c3cccc4c3c(cc3nc5ccccc5nc34)O2)cc1`, where the note is “in ClCCl”, the photoluminescence quantum yield is 0.43.

Regarding `CC(C)(C)c1ccc2c(c1)c1cc(C(C)(C)C)ccc1n2-c1ccc(C#Cc2ccc(C=C(C#N)C#N)cc2)cc1`, the photoluminescence quantum yield runs as follows: (in CC#N) 0.33; (in CCCCC) 0.5; (in Cc1ccccc1) 0.48; (in ClCCl) 0.4.

In the case of `Clc1nc(Cl)nc(Nc2ccc3c4cccc5cccc(c6cccc2c63)c54)n1`, the photoluminescence quantum yield was found to be 0.068 (in C1COCCO1), 0.011 (in CC#N), 0.12 (in CCCCOCCCC) and 0.014 (in CCOC(C)=O).

The molecule `C1=CC2CC1C1C2[C@@]2(c3ccccc3)N=NC1(c1ccccc1)[C@@H]1C[C@H]12` (stereo partly drawn) came in with a photoluminescence quantum yield (in CC#N) of 0.038.

In the case of `CC(C)(C)c1ccc(-c2ccc3c(-c4ccc(C(C)(C)C)c5ccccc45)cc4c5cc(-c6ccc(C(C)(C)C)c7ccccc67)ccc5c(-c5ccc(C(C)(C)C)c6ccccc56)cc4c3c2)c2ccccc12`, the photoluminescence quantum yield (in ClCCl) is 0.72.

`Cc1ccc(N(c2ccc(C)cc2)c2c3ccccc3c(N(c3ccc(C)cc3)c3ccc(C)cc3)c3ccccc23)cc1` gave a photoluminescence quantum yield (in Cc1ccccc1) of 0.95.

For the molecule `COC(=O)c1cc(=O)n(C)c2cc(-c3ccc(Oc4ccccc4)cc3)sc12`, the photoluminescence quantum yield runs as follows: (in CC#N) 0.63; (in ClCCl) 0.83.

As to `CCn1c(-c2ccc(-c3ccc(-c4ccc(-c5n(CC)c6ccccc6[n+]5CC)cc4)c(C)c3)cc2)[n+](CC)c2ccccc21`, where the note is “in O”, the photoluminescence quantum yield was found to be 0.71.

Take `COc1ccc(-n2nc(C(=O)N3CCCC3)c(N3CCCC3)n2)cc1`: the photoluminescence quantum yield runs as follows: (in CC#N) 0.555; (in CCCCCC) 0.94; (in CCO) 0.9; (in CN(C)C=O) 0.77; (in ClC(Cl)Cl) 0.64.

For the molecule `Cc1nc2cc(/C=C/c3ccc(N(C)C)cc3)ccc2nc1-c1ccccc1`, the photoluminescence quantum yield came out at 0.29 (in C1COCCO1), 0.01 (in CC#N) and 0.09 (in ClCCl).

As to `CN(C)CCN(Cc1c2ccccc2c(CN(CCN(C)C)c2ccc([N+](=O)[O-])cc2[N+](=O)[O-])c2ccccc12)c1ccc([N+](=O)[O-])cc1[N+](=O)[O-]`, the photoluminescence quantum yield runs as follows: (in C1CCOC1) 0.0052; (in CC#N) 0.00153; (in CC(C)=O) 0.0012; (in CCO) 0.0136; (in CN(C)C=O) 0.00067; (in CO) 0.0387.

In the case of `Cc1ccc(/C=C/c2nc3ccccc3s2)cc1`, the photoluminescence quantum yield (in C1CCCCC1) is 0.02 and the photoluminescence quantum yield (in CO) is 0.003.

With `COc1ccc(/C=C/c2nc3ccccc3o2)cc1`, the photoluminescence quantum yield (in C1CCCCC1) was 0.006 and the photoluminescence quantum yield (in CO) stood at 0.001.

For `CC1=[N+]2C(=C(c3cccs3)c3ccc(C)n3[B-]2(F)F)C=C1c1cc2n(c1)[B-](F)(F)[N+]1=CC=CC1=C2c1c(C)cc(C)cc1C`, the photoluminescence quantum yield reads like this: (in C1CCCCC1) 0.62; (in CCOC(C)=O) 0.12.

Where the note is “in ClCCl”, `CN(C)c1ccc(C2=C3C=C(c4ccc(C=O)cc4)S[C@]34c3ccccc3[C@H]2c2ccccc24)cc1` had a photoluminescence quantum yield of 0.54.

As for `CC1=[N+]2C(=C(c3ccc(C(=O)c4ccccc4)cc3)c3ccc(C)n3[B-]2(F)F)C=C1c1cc2n(c1)[B-](F)(F)[N+]1=CC=CC1=C2c1c(C)cc(C)cc1C`, the photoluminescence quantum yield stood at 0.47 (in C1CCCCC1) and 0.13 (in CCOC(C)=O).

In the case of `CCOC(=O)/N=c1/oc2cc(N(CC)CC)ccc2cc1C#N`, the photoluminescence quantum yield (in ClCCl) was determined as 0.85.

As to `CCCc1ccc2c(c1)cc1n2B2c3c4c-1cccc4cc1cccc(c31)-c1cc3cc(CCC)ccc3n12`, the photoluminescence quantum yield (in C1CCOC1) amounted to 0.39.

For `CN(C)c1cc(-c2ccccc2)cc2ccccc12`, for the setting “in ClCCl”, the photoluminescence quantum yield was 0.52.

Under “in CC(C)O”, `CC[n+]1c(C=C2C(=O)C(C=C3N(C)c4ccccc4C3(C)C)=C2[O-])[se]c2ccccc21` came in with a photoluminescence quantum yield of 0.11.

For `CCCCN1C(=O)C(=C/C=C/C=C2N(CCCC)c3ccccc3N2CCCC)C(=O)N(CCCC)C1=S`, the photoluminescence quantum yield by setting is: (in CCCCCC) 0.115; (in CCO) 0.013; (in CN(C)C=O) 0.023; (in Cc1ccccc1) 0.168; (in ClC(Cl)Cl) 0.046; (in ClCCl) 0.032.

Turning to `CCOC(=O)c1cc(C(=O)OCC)c2cc(O)ccc2n1`, the photoluminescence quantum yield (in CCO) is 0.16.

Consider `CCN(CC)c1ccc2c(c1)oc(=O)c1c(C)nc3c(cnn3-c3ccccc3)c12`, for which the photoluminescence quantum yield by setting is: (in C1CCCCC1) 0.931; (in CCOC(C)=O) 0.685; (in CN(C)C=O) 0.37; (in CO) 0.294; (in ClCCl) 0.829.

In the case of `CN(C)c1ccc(/C=C/c2ccncn2)cc1`, the photoluminescence quantum yield (in ClCCl) is 0.15.
